The results in this text go back to patent publication US20240383908A1, “SYNTHESIS AND APPLICATION OF PHOSPHATASE DEGRADER” (HINOVA PHARMACEUTICALS INC., priority 2021, published 2024).

This test has as its target T1, SHP2 protein (Homo sapiens, UniProt Q06124).
T1 sequence (Q06124 1-593): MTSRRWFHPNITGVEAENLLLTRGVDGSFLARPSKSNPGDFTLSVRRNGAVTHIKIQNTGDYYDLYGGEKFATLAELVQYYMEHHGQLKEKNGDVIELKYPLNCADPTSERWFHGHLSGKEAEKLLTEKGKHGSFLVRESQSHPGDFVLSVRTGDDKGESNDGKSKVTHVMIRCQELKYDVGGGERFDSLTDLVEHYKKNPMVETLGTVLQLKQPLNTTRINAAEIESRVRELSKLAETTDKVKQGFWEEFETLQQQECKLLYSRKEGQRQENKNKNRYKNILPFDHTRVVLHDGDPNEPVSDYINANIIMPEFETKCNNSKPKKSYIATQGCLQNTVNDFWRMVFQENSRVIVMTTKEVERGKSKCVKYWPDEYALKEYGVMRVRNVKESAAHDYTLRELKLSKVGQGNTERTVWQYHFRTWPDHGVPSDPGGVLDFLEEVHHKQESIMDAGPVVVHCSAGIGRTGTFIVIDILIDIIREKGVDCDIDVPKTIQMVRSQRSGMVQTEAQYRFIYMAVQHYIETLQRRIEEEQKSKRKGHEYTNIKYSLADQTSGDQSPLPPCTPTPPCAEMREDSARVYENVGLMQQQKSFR
Description: Degradation activity on SHP2 protein in MV-411 cells (Western blot, DC50). The test is classed as cell-based. On the set-up: endogenous in cells. The conditions noted are these: MV411 cells, 24 hours, read-out: Degradation activity for differenct cell lines MV411 (DC50). The gist of the method: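 MV-411 cells (1×10^6 cells/well, IMDM + 10% FBS) were treated 24 h with compound at 0.1-100 nM final, 0.1% DMSO, duplicates. SHP2 measured by Western blot against GAPDH, band density normalised to DMSO control; DC50 from dose-response fit.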
With `CC1(N)CCN(c2cnc(Sc3cccc(NC(=O)CCCCCCN4CC5(CCN(C6CCC(C(=O)NCc7ccc8c(c7)CN(C7CCC(=O)NC7=O)C8=O)CC6)C5)C4)c3)cn2)CC1` (centres unmarked) [Compound 158, 4-(2-(7-((3-((5-(4-amino-4-methylpyridin-1-yl)pyrazin-2-yl)thio)phenyl)amino)-7-oxoheptyl)-2,6-diazaspiro[3.4]octan6-yl)-N-((2-(2,6-dioxopiperidin-3-yl)-1-oxoisoindol-5-yl)methyl)cyclohexane-1-formamide], the 50% degradation concentration (DC50) lay in the range of 0.1 to 1 µM. In the case of `CCC1(N)CCN(c2cnc(Sc3cccc(NC(=O)CCCCCCN4CC5(CCN(c6ccc(C(=O)N(C)Cc7ccc8c(c7)CN(C7CCC(=O)NC7=O)C8=O)nn6)C5)C4)c3)cn2)CC1` (centres unmarked) [Compound 162], the DC50 was below 0.1 µM.

As to `CN(Cc1ccc2c(c1)CN(C1CCC(=O)NC1=O)C2=O)C(=O)c1ccc(N2CC[C@@H](OCCCCCCCC(=O)Nc3cccc(Sc4cnc(N5CCC(C)(N)CC5)cn4)c3)[C@@H](F)C2)nn1` (some centres unmarked) [Compound 163], the DC50 is below 0.1 µM. For the molecule `CC1(N)CCN(c2cnc(Sc3cccc(NC(=O)CCCCCN4CC5(CCN(c6ccc(C(=O)NCc7ccc8c(c7)CN(C7CCC(=O)NC7=O)C8=O)nn6)C5)C4)c3)cn2)CC1` (centres unmarked) [Compound 164], the DC50 is below 0.1 µM. As to `CN(Cc1ccc2c(c1)CN(C1CCC(=O)NC1=O)C2=O)C(=O)c1ccc(N2CCC3(CN(CCCCCC(=O)Nc4cccc(Sc5cnc(N6CCC(C)(N)CC6)cn5)c4)C3)C2)nn1` (centres unmarked) [Compound 165], the DC50 is below 0.1 µM. For `CN(Cc1ccc2c(c1)CN(C1CCC(=O)NC1=O)C2=O)C(=O)c1ccc(N2CCC3(CC(OCCCCCC(=O)Nc4cccc(Sc5cnc(N6CCC(C)(N)CC6)cn5)c4)C3)C2)nn1` (centres unmarked) [Compound 167], the DC50 was below 0.1 µM. As for `CN(Cc1ccc2c(c1)CN(C1CCC(=O)NC1=O)C2=O)C(=O)c1ccc(N2CCC3(CN(CCCCCCC(=O)Nc4cccc(Sc5cnc(N6CCC(N)(CO)CC6)cn5)c4)C3)C2)nn1` (centres unmarked) [Compound 169], the figure is below 0.1 µM; as for `CN(Cc1ccc2c(c1)CN(C1CCC(=O)NC1=O)C2=O)C(=O)c1cnc(N2CCC3(CN(CCCCCCC(=O)Nc4cccc(Sc5cnc(N6CCC(C)(N)CC6)cn5)c4)C3)C2)c(C(F)(F)F)c1` (centres unmarked) [Compound 171], below 0.1 µM; as for `CC1(N)CCN(c2cnc(Sc3cccc(NC(=O)CCCCCCCN4CC5(CC(n6cc(C#Cc7ccc8c(c7)CN(C7CCC(=O)NC7=O)C8=O)cn6)C5)C4)c3)cn2)CC1` (centres unmarked) [Compound 172], below 0.1 µM. The result for `CN(Cc1ccc2c(c1)CN(C1CCC(=O)NC1=O)C2=O)C(=O)c1ccc(N2CCC(OCCCCCCCC(=O)Nc3cccc(Sc4cnc(N5CCC(C)(N)CC5)cn4)c3)C(F)(F)C2)nn1` (centres unmarked) [Compound 173] reads below 0.1 µM. The result for `CN(Cc1ccc2c(c1)CN(C1CCC(=O)NC1=O)C2=O)C(=O)c1cnc(N2CCC3(CN(CCCCCCC(=O)Nc4cccc(Sc5cnc(N6CCC(C)(N)CC6)cn5)c4)C3)C2)cn1` (centres unmarked) [Compound 180] reads below 0.1 µM; that for `CN(Cc1ccc2c(c1)CN(C1CCC(=O)NC1=O)C2=O)C(=O)c1cnc(N2CCC3(CN(CCCCCCC(=O)Nc4cccc(Sc5cnc(N6CCC(C)(N)CC6)cn5)c4)C3)C2)c(Cl)c1` (centres unmarked) [Compound 182], below 0.1 µM; that for `CN(Cc1ccc2c(c1)CN(C1CCC(=O)NC1=O)C2=O)C(=O)c1ccc(N2CC3CC(OCCCCCCC(=O)Nc4cccc(Sc5cnc(N6CCC(C)(N)CC6)cn5)c4)CC3C2)nn1` (centres unmarked) [Compound 184], below 0.1 µM. On to `CCCCCOC(=O)NC1(C)CCN(c2cnc(Sc3cccc(NC(=O)CCCCCCN4CC5(CCN(c6ccc(C(=O)NCc7ccc8c(c7)CN(C7CCC(=O)NC7=O)C8=O)nn6)C5)C4)c3)cn2)CC1` (centres unmarked) [Compound 187], for which the 50% degradation concentration (DC50) is above 1 µM.
